Source: US20080009418A1, “Selective Inhibitors” (Alchemia LTD., priority 2004, published 2008)

Assays:
Human δ-opioid (DOP) = target: T1, Human δ-opioid (DOP) (Homo sapiens, UniProt P41143); experiment: Radioligand binding, human δ-opioid (DOP) membranes, FlashPlate, [3H]-Bremazocine; settings: compound at 10 μM; [3H]-Bremazocine, human DOP membranes
T1 construct: purchased Perkin Elmer Biosignal
Summary of the method: (§1)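 Cloned human receptor membranes were coated onto FlashPlate wells and incubated with radioligand and compound (added from a 0.5 mM DMSO daughter plate) for 1 hour at room temperature in the dark. Scintillation counting gave percent inhibition, with DMSO defining total and reference ligand defining non-specific binding.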

Human κ-Opioid (KOP) = target: T2, Human κ-Opioid (KOP) (Homo sapiens, UniProt P41145); experiment: Radioligand binding, human κ-opioid (KOP) membranes, filtration, [3H]-Diprenorphine; settings: compound at 10 μM; [3H]-Diprenorphine, human KOP membranes
T2 construct: purchased Perkin Elmer Biosignal
T2 sequence (P41145 whole entry): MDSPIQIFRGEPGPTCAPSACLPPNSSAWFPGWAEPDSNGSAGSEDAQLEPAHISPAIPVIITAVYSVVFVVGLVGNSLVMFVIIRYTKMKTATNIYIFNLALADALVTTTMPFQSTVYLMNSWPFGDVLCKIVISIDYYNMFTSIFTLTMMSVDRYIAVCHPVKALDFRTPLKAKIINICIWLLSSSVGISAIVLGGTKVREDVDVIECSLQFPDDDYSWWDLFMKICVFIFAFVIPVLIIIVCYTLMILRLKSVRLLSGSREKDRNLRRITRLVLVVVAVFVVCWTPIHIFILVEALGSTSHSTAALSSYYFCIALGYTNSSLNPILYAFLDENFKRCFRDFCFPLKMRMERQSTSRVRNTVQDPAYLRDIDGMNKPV
Summary of the method: (§2)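 Filtration binding on cloned human receptor membranes (1 Unit/well), [125I]-Substance P for NK1 and [3H]-Diprenorphine for KOP, 1 h at room temperature. Filters PEI-presoaked, washed with cold 50 mM Tris-HCl pH 7.4, counted by scintillation; percent inhibition calculated, reference ligand defining non-specific binding.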

Human Melanocortin (MC3) = target: T3, Human Melanocortin (MC3) (Homo sapiens, UniProt P41968); experiment: Radioligand binding, human melanocortin MC3 membranes, FlashPlate, [125I]-NDP-αMSH; settings: compound at 10 μM, [125I]-NDP-αMSH, human MC3 membranes
T3 construct: purchased Perkin Elmer Biosignal
T3 sequence (P41968 whole entry): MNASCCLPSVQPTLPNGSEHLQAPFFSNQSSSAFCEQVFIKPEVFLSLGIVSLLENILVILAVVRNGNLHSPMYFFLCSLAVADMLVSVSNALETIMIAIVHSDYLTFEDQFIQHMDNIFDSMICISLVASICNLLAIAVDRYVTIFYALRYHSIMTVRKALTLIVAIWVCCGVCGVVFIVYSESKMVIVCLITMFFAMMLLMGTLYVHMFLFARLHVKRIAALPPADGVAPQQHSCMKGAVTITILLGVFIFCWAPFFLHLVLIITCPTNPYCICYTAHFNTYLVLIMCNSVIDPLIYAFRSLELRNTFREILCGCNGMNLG
Summary of the method: as §1

Human Melanocortin (MC4) = target: T4, Human Melanocortin (MC4) (Homo sapiens, UniProt P32245); experiment: Radioligand binding, human melanocortin MC4 membranes, FlashPlate, [125I]-NDP-αMSH; settings: compound at 10 μM; [125I]-NDP-αMSH, human MC4 membranes; 10 µM
T4 construct: purchased Perkin Elmer Biosignal
T4 sequence (P32245 whole entry): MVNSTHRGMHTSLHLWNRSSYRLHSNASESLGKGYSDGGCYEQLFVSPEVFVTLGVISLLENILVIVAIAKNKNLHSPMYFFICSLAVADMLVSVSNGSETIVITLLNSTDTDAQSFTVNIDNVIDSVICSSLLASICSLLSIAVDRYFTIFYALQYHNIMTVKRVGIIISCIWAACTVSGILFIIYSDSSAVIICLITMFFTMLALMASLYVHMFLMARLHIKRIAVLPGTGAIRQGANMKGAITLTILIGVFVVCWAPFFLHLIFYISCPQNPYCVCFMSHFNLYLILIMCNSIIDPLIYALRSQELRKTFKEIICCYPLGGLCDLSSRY
Summary of the method: as §1

Human melanocortin (MC5) = target: T5, Human melanocortin (MC5) (Homo sapiens, UniProt P33032); experiment: Radioligand binding, human melanocortin MC5 membranes, FlashPlate, [125I]-NDP-αMSH; settings: compound at 10 μM; [125I]-NDP-αMSH, human MC5 membranes
T5 construct: purchased Perkin Elmer Biosignal
T5 sequence (P33032 whole entry): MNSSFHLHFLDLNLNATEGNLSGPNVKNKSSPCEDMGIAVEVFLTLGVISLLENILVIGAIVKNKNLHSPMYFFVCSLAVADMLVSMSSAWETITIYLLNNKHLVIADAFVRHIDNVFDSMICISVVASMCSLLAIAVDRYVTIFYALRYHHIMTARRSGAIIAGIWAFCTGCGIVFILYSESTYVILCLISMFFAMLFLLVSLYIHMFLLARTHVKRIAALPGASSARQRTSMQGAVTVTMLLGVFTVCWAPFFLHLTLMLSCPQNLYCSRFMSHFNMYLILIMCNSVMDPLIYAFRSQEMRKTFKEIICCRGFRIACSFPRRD
Summary of the method: as §1

[1] = target: T6, Human melanin-concentrating hormone (MCH1) (Homo sapiens, UniProt Q99705); experiment: Radioligand binding, human melanin-concentrating hormone MCH1 membranes, FlashPlate, [125I]-S36057; settings: compound at 10 μM, [125I]-S36057, human MCH1 membranes
T6 construct: purchased Perkin Elmer Biosignal
T6 sequence (Q99705 whole entry): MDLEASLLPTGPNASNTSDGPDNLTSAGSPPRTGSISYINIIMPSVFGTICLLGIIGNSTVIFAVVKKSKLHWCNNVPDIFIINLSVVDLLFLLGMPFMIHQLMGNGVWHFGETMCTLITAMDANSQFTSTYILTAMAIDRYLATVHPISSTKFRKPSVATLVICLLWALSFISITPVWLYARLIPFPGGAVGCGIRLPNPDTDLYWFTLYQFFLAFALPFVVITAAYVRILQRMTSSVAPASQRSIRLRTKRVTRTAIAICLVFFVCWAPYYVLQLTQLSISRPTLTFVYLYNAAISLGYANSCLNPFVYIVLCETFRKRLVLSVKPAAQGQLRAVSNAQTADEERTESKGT
Summary of the method: as §1

Human μ-opioid (MOP) = target: T7, Human μ-opioid (MOP) (Homo sapiens, UniProt P35372); experiment: Radioligand binding, human μ-opioid (MOP) membranes, FlashPlate, [3H]-Naloxone; settings: compound at 10 μM, [3H]-Naloxone, human MOP membranes
T7 construct: purchased Perkin Elmer Biosignal
T7 sequence (P35372 whole entry): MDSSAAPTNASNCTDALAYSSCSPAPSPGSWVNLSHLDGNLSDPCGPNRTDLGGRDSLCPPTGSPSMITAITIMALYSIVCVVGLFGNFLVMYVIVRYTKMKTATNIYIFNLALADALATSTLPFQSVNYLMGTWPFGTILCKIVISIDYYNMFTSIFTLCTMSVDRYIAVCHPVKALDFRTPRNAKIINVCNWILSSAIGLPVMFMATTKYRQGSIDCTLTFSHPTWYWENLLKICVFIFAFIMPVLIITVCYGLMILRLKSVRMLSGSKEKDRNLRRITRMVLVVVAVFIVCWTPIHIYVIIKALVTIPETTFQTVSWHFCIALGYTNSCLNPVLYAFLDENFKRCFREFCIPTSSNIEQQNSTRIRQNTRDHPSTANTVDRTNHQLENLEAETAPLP
Summary of the method: as §1

Human neurokinin (NK1) = target: T8, Human neurokinin (NK1) (Homo sapiens, UniProt P25103); experiment: Radioligand binding, human neurokinin NK1 membranes, filtration, [125I]-Substance P; settings: compound at 10 μM; [125I]-Substance P, human NK1 membranes
T8 construct: purchased Perkin Elmer Biosignal
T8 sequence (P25103 whole entry): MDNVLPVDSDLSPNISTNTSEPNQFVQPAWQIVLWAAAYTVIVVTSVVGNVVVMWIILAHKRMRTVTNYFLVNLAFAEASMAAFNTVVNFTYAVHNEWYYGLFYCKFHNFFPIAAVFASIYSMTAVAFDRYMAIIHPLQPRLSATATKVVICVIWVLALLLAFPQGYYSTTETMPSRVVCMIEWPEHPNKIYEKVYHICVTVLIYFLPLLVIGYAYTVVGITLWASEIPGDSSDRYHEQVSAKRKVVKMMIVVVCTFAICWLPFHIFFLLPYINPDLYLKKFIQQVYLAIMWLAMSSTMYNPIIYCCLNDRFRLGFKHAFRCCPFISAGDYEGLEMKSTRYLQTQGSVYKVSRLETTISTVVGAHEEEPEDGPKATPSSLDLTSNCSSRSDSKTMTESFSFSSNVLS
Summary of the method: as §2

[2] = target: T9, Human neuropeptide Y (NPY-Y1) (Homo sapiens, UniProt P25929); experiment: Radioligand binding, human neuropeptide Y NPY-Y1 membranes, FlashPlate, [125I]-PYY; settings: compound at 10 μM; [125I]-PYY, human NPY-Y1 membranes
T9 construct: purchased Perkin Elmer Biosignal
T9 sequence (P25929 1-384): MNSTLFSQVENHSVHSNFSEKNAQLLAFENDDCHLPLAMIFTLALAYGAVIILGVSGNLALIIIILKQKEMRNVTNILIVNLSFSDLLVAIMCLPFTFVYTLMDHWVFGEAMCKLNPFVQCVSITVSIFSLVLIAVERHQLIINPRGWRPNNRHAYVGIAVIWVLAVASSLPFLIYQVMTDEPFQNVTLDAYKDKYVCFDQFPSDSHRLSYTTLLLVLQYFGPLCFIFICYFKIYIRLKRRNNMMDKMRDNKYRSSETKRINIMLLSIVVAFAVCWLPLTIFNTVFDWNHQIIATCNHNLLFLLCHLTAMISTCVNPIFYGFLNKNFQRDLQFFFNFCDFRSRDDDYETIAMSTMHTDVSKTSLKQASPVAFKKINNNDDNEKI
Summary of the method: as §1

Human opioid (ORL1) = target: T10, Human opioid (ORL1) (Homo sapiens, UniProt P41146); experiment: Radioligand binding, human opioid ORL1 membranes, FlashPlate, [125I]-Nociceptin; settings: compound at 10 μM, [125I]-Nociceptin, human ORL1 membranes
T10 construct: purchased Perkin Elmer Biosignal
T10 sequence (P41146 whole entry): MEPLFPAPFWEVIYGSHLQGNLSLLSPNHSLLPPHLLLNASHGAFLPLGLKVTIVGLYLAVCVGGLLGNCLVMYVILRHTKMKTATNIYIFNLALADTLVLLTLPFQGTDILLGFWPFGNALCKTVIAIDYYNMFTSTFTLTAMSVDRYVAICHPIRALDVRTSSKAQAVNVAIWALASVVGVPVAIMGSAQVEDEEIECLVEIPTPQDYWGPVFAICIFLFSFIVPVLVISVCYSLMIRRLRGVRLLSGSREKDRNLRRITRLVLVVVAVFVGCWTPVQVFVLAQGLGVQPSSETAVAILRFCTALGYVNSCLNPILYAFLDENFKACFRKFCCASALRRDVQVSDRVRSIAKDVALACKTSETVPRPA
Summary of the method: as §1

Mouse urotensin (mUR2) = target: T11, Mouse urotensin (mUR2) (Mus musculus, UniProt Q8VIH9); experiment: Radioligand binding, mouse urotensin mUR2 membranes, FlashPlate, [125I]-Urotensin II; settings: compound at 10 μM; [125I]-Urotensin II, mouse mUR2 membranes
T11 construct: purchased Perkin Elmer Biosignal
T11 sequence (Q8VIH9 1-385): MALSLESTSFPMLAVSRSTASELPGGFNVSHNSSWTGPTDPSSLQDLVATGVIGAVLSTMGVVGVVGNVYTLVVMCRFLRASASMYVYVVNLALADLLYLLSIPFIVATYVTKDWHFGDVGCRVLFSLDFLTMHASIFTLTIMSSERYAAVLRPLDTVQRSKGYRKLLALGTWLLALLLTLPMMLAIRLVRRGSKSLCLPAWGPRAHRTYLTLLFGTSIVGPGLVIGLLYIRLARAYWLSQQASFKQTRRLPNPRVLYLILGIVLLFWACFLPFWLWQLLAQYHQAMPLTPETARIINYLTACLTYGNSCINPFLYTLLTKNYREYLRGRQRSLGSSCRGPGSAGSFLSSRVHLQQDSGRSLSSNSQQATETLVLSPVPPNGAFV
Summary of the method: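 Cloned mouse urotensin (mUR2) receptor membranes from Perkin Elmer Biosignal were immobilized in FlashPlate microplates using a proprietary coating. Each well got 19.5 μl buffer, then 0.5 μl of DMSO, reference ligand, or compound. Adding 5 μl of [125I]-Urotensin II, diluted to 5× final concentration in binding buffer, started binding. Plates were sealed with TopSeal-A and incubated 1 hour at room temperature in the dark. Wells were counted for 30 seconds each on a TopCount after a 60-second delay, and percentage inhibition was calculated.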

T1 sequence (P41143 whole entry): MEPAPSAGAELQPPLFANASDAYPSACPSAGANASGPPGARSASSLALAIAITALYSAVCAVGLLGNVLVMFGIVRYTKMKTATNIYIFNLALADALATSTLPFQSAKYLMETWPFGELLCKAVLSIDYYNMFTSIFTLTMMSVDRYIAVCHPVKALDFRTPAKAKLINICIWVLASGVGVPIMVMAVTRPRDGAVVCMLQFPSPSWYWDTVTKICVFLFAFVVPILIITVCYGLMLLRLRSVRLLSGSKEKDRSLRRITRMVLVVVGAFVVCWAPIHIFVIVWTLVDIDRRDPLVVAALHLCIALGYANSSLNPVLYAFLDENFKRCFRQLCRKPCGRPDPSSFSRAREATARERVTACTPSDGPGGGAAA

| Structure (SMILES) | A1: inhibition of radioligand binding (Human δ-opioid (DOP)) | A2: inhibition of radioligand binding (Human κ-Opioid (KOP)) | A3: inhibition of radioligand binding (Human Melanocortin (MC3)) | A4: inhibition of radioligand binding (Human Melanocortin (MC4)) | A5: inhibition of radioligand binding (Human melanocortin (MC5)) | A6: inhibition of radioligand binding [1] | A7: inhibition of radioligand binding (Human μ-opioid (MOP); 10 µM) | A8: inhibition of radioligand binding (Human neurokinin (NK1)) | A9: inhibition of radioligand binding [2] | A10: inhibition of radioligand binding (Human opioid (ORL1); 10 µM) | A11: inhibition of radioligand binding (Mouse urotensin (mUR2)) | A3: inhibition of radioligand binding (Human Melanocortin (MC3); 10 µM) | A7: inhibition of radioligand binding (Human μ-opioid (MOP)) | A6: inhibition of radioligand binding ([1]; 10 µM) | A10: inhibition of radioligand binding (Human opioid (ORL1)) |
| --- | --- | --- | --- | --- | --- | --- | --- | --- | --- | --- | --- | --- | --- | --- | --- |
| NCCCC(=O)NC1C(OCc2ccc3ccccc3c2)OC(COCc2ccccc2)C(O)C1OCc1ccccc1 (single isomer, unassigned) [compound 467] | − (“−” indicates less than 50% inhibition at 10 μM) | − (“−” indicates less than 50% inhibition at 10 μM) | − (“−” indicates less than 50% inhibition at 10 μM) | − (“−” indicates less than 50% inhibition at 10 μM) | − (“−” indicates less than 50% inhibition at 10 μM) | − (“−” indicates less than 50% inhibition at 10 μM) | − (“−” indicates less than 50% inhibition at 10 μM) | + (“+” indicates greater than 50% inhibition at 10 μM) | − (“−” indicates less than 50% inhibition at 10 μM) | − (“−” indicates less than 50% inhibition at 10 μM) | − (“−” indicates less than 50% inhibition at 10 μM) | – | – | – | – |
| NCCCC(=O)NC1C(OCc2ccc3ccccc3c2)OC(COCc2ccccc2)C(O)C1OCc1ccccc1 (single isomer, unassigned) [compound 468] | − (“−” indicates less than 50% inhibition at 10 μM) | − (“−” indicates less than 50% inhibition at 10 μM) | − (“−” indicates less than 50% inhibition at 10 μM) | − (“−” indicates less than 50% inhibition at 10 μM) | − (“−” indicates less than 50% inhibition at 10 μM) | − (“−” indicates less than 50% inhibition at 10 μM) | + (“+” indicates greater than 50% inhibition at 10 μM) | + (“+” indicates greater than 50% inhibition at 10 μM) | − (“−” indicates less than 50% inhibition at 10 μM) | + (“+” indicates greater than 50% inhibition at 10 μM) | − (“−” indicates less than 50% inhibition at 10 μM) | – | – | – | – |
| NCCCC(=O)NC1C(OCc2ccc3ccccc3c2)OC(COCc2ccc(Cl)cc2)C(O)C1OCc1ccccc1 (single isomer, unassigned) [compound 469] | − (“−” indicates less than 50% inhibition at 10 μM) | − (“−” indicates less than 50% inhibition at 10 μM) | – | + (“+” indicates greater than 50% inhibition at 10 μM) | + (“+” indicates greater than 50% inhibition at 10 μM) | − (“−” indicates less than 50% inhibition at 10 μM) | – | + (“+” indicates greater than 50% inhibition at 10 μM) | − (“−” indicates less than 50% inhibition at 10 μM) | − (“−” indicates less than 50% inhibition at 10 μM) | − (“−” indicates less than 50% inhibition at 10 μM) | − (“−” indicates less than 50% inhibition at 10 μM) | − (“−” indicates less than 50% inhibition at 10 μM) | – | – |
| NCCCC(=O)NC1C(OCc2ccc3ccccc3c2)OC(COCc2ccc(Cl)cc2)C(O)C1OCc1ccccc1 (single isomer, unassigned) [compound 470] | − (“−” indicates less than 50% inhibition at 10 μM) | − (“−” indicates less than 50% inhibition at 10 μM) | – | − (“−” indicates less than 50% inhibition at 10 μM) | + (“+” indicates greater than 50% inhibition at 10 μM) | − (“−” indicates less than 50% inhibition at 10 μM) | – | + (“+” indicates greater than 50% inhibition at 10 μM) | − (“−” indicates less than 50% inhibition at 10 μM) | + (“+” indicates greater than 50% inhibition at 10 μM) | − (“−” indicates less than 50% inhibition at 10 μM) | − (“−” indicates less than 50% inhibition at 10 μM) | − (“−” indicates less than 50% inhibition at 10 μM) | – | – |
| NCCC(=O)NC1C(OCc2ccc(Cl)cc2)OC(COCc2ccc3ccccc3c2)C(O)C1OCc1ccc(Cl)cc1 (single isomer, unassigned) [compound 471] | − (“−” indicates less than 50% inhibition at 10 μM) | − (“−” indicates less than 50% inhibition at 10 μM) | + (“+” indicates greater than 50% inhibition at 10 μM) | − (“−” indicates less than 50% inhibition at 10 μM) | + (“+” indicates greater than 50% inhibition at 10 μM) | – | – | + (“+” indicates greater than 50% inhibition at 10 μM) | − (“−” indicates less than 50% inhibition at 10 μM) | – | − (“−” indicates less than 50% inhibition at 10 μM) | – | − (“−” indicates less than 50% inhibition at 10 μM) | − (“−” indicates less than 50% inhibition at 10 μM) | − (“−” indicates less than 50% inhibition at 10 μM) |
